Experimental data from ChEMBL document CHEMBL1130041, “Halogenated 4-(phenoxymethyl)piperidines as potential radiolabeled probes for sigma-1 receptors: in vivo evaluation of [123I]-1-(iodopropen-2-yl)-4-[(4-cyanophenoxy)methyl]pip eri dine” (J Med Chem, 1997).

Assays:
[1] = species: Rattus norvegicus; assay: Biodistribution of [123I]-label in rat muscle was reported at 0.33 hr post injection. Value shown is %ID/g of tissue; format: ADME, organism-based; conditions: in vivo
[2] = species: Rattus norvegicus; assay: Biodistribution of [123I]-label in rat thyroid was reported at 0.33 hr post injection. Value shown is %ID/organ; format: ADME, organism-based, Thyroid gland; conditions: in vivo
[3] = species: Rattus norvegicus; assay: Distribution of [123I]-label in rat brain (cerebellum) was reported at 60 min post injection. Value shown is %ID/g of tissue; format: ADME, organism-based; conditions: in vivo, 1 h
[4] = species: Rattus norvegicus; assay: Biodistribution of [123I]-label in rat kidneys was reported at 4 hr post injection. Value shown is %ID/g of tissue; format: ADME, organism-based, Kidney; conditions: in vivo
[5] = species: Rattus norvegicus; assay: Biodistribution of [123I]-label in rat liver was reported at 2 hr post injection. Value shown is %ID/g of tissue; format: ADME, organism-based; conditions: in vivo
[6] = species: Rattus norvegicus; assay: Biodistribution of [123I]-label in rat kidneys was reported at 24 hr post injection. Value shown is %ID/g of tissue; format: ADME, organism-based, Kidney; conditions: in vivo
[7] = species: Rattus norvegicus; assay: Biodistribution of [123I]-label in rat intestine was reported at 2 hr post injection. Value shown is %ID/g of tissue; format: ADME, organism-based; conditions: in vivo
[8] = Partition coefficient (logP); format: physicochemical; conditions: octanol/water
[9] = species: Rattus norvegicus; assay: Biodistribution of [123I]-label in rat kidneys was reported at 1 h post injection. Value shown is %ID/g of tissue; format: ADME, organism-based, Kidney; conditions: in vivo
[10] = species: Rattus norvegicus; assay: Distribution of [123I]-label in rat brain (medulla pons) was reported at 20 min post injection. Value shown is %ID/g of tissue; format: ADME, organism-based; conditions: in vivo
[11] = species: Rattus norvegicus; assay: Biodistribution of [123I]-label in rat brain was reported at 24 hr post injection. Value shown is %ID/g of tissue; format: ADME, organism-based; conditions: in vivo
[12] = species: Rattus norvegicus; assay: Distribution of [123I]-label in rat brain (midbrain) was reported at 20 min post injection. Value shown is %ID/g of tissue; format: ADME, organism-based; conditions: in vivo
[13] = species: Rattus norvegicus; assay: Distribution of [123I]-label in rat brain (hippocampus) was reported at 20 min post injection. Value shown is %ID/g of tissue; format: ADME, organism-based; conditions: in vivo
[14] = species: Rattus norvegicus; assay: Distribution of [123I]-label in rat brain (striatum) was reported at 20 min post injection. Value shown is %ID/g of tissue; format: ADME, organism-based; conditions: in vivo
[15] = target: D(2) dopamine receptor (Homo sapiens, UniProt P14416); assay: In vitro binding affinity for Dopamine receptor D2
[16] = species: Rattus norvegicus; assay: Biodistribution of [123I]-label in rat kidneys was reported at 2 hr post injection. Value shown is %ID/g of tissue; format: ADME, organism-based, Kidney; conditions: in vivo
[17] = species: Rattus norvegicus; assay: Biodistribution of [123I]-label in rat kidneys was reported at 0.33 hr post injection. Value shown is %ID/g of tissue; format: ADME, organism-based, Kidney; conditions: in vivo
[18] = species: Rattus norvegicus; assay: Biodistribution of [123I]-label in rat muscle was reported at 2 hr post injection. Value shown is %ID/g of tissue; format: ADME, organism-based; conditions: in vivo
[19] = species: Rattus norvegicus; assay: Distribution of [123I]-label in rat brain (striatum) was reported at 60 min post injection. Value shown is %ID/g of tissue; format: ADME, organism-based; conditions: in vivo, 1 h
[20] = species: Rattus norvegicus; assay: Biodistribution of [123I]-label in rat spleen was reported at 24 h post injection. Value shown is %ID/g of tissue; format: ADME, organism-based; conditions: in vivo
[21] = species: Rattus norvegicus; assay: Distribution of [123I]-label in rat brain (posterior cortex) was reported at 20 min post injection. Value shown is %ID/g of tissue; format: ADME, organism-based; conditions: in vivo
[22] = species: Rattus norvegicus; assay: Biodistribution of [123I]-label in rat spleen was reported at 0.33 hr post injection. Value shown is %ID/g of tissue; format: ADME, organism-based; conditions: in vivo
[23] = species: Rattus norvegicus; assay: Biodistribution of [123I]-label in rat brain was reported at 4 hr post injection. Value shown is %ID/organ; format: ADME, organism-based; conditions: in vivo
[24] = species: Rattus norvegicus; assay: Biodistribution of [123I]-label in rat stomach was reported at 24 hr post injection. Value shown is %ID/g of tissue; format: ADME, organism-based; conditions: in vivo
[25] = species: Rattus norvegicus; assay: Biodistribution of [123I]-label in rat thyroid was reported at 1 hr post injection. Value shown is %ID/organ; format: ADME, organism-based, Thyroid gland; conditions: in vivo
[26] = species: Rattus norvegicus; assay: Biodistribution of [123I]-label in rat spleen was reported at 2 hr post injection. Value shown is %ID/g of tissue; format: ADME, organism-based; conditions: in vivo
[27] = species: Rattus norvegicus; assay: Biodistribution of [123I]-label in rat blood was reported at 1 hr post injection. Value shown is %ID/g of tissue; format: ADME, organism-based; conditions: in vivo
[28] = species: Rattus norvegicus; assay: Biodistribution of [123I]-label in rat liver was reported at 4 hr post injection. Value shown is %ID/g of tissue; format: ADME, organism-based; conditions: in vivo
[29] = species: Rattus norvegicus; assay: Biodistribution of [123I]-label in rat stomach was reported at 1 h post injection. Value shown is %ID/g of tissue; format: ADME, organism-based; conditions: in vivo
[30] = species: Rattus norvegicus; assay: Biodistribution of [123I]-label in rat brain was reported at 1 hr post injection. Value shown is %ID/g of tissue; format: ADME, organism-based; conditions: in vivo
[31] = species: Rattus norvegicus; assay: Biodistribution of [123I]-label in rat blood was reported at 24 hr post injection. Value shown is %ID/g of tissue; format: ADME, organism-based; conditions: in vivo
[32] = species: Rattus norvegicus; assay: Biodistribution of [123I]-label in rat muscle was reported at 1 hr post injection. Value shown is %ID/g of tissue; format: ADME, organism-based; conditions: in vivo
[33] = species: Rattus norvegicus; assay: Biodistribution of [123I]-label in rat lung was reported at 1 hr post injection. Value shown is %ID/g of tissue; format: ADME, organism-based; conditions: in vivo
[34] = In Vitro binding affinity for 5-hydroxytryptamine 2 receptor
[35] = target: Sigma 2 receptor; assay: Receptor binding affinity against Sigma-2 receptor from guinea pig membranes; parameters: species or system Cavia porcellus
[36] = species: Rattus norvegicus; assay: Biodistribution of [123I]-label in rat heart was reported at 4 hr post injection. Value shown is %ID/g of tissue; format: ADME, organism-based; conditions: in vivo
[37] = species: Rattus norvegicus; assay: Biodistribution of [123I]-label in rat intestine was reported at 4 hr post injection. Value shown is %ID/g of tissue; format: ADME, organism-based; conditions: in vivo
[38] = species: Rattus norvegicus; assay: Distribution of [123I]-label in rat brain (diencephalon) was reported at 60 min post injection. Value shown is %ID/g of tissue; format: ADME, organism-based; conditions: in vivo, 1 h
[39] = species: Rattus norvegicus; assay: Biodistribution of [123I]-label in rat liver was reported at 0.33 hr post injection. Value shown is %ID/g of tissue; format: ADME, organism-based; conditions: in vivo
[40] = species: Rattus norvegicus; assay: Biodistribution of [123I]-label in rat lung was reported at 4 hr post injection. Value shown is %ID/g of tissue; format: ADME, organism-based; conditions: in vivo
[41] = species: Rattus norvegicus; assay: Distribution of [123I]-label in rat brain (cerebellum) was reported at 20 min post injection. Value shown is %ID/g of tissue; format: ADME, organism-based; conditions: in vivo
[42] = species: Rattus norvegicus; assay: Biodistribution of [123I]-label in rat brain was reported at 2 hr post injection. Value shown is %ID/g of tissue; format: ADME, organism-based; conditions: in vivo
[43] = species: Rattus norvegicus; assay: Distribution of [123I]-label in rat brain (midbrain) was reported at 60 min post injection. Value shown is %ID/g of tissue; format: ADME, organism-based; conditions: in vivo, 1 h
[44] = species: Rattus norvegicus; assay: Biodistribution of [123I]-label in rat brain was reported at 0.33 hr post injection. Value shown is %ID/organ; format: ADME, organism-based; conditions: in vivo
[45] = species: Rattus norvegicus; assay: Biodistribution of [123I]-label in rat brain was reported at 4 hr post injection. Value shown is %ID/g of tissue; format: ADME, organism-based; conditions: in vivo
[46] = species: Rattus norvegicus; assay: Biodistribution of [123I]-label in rat heart was reported at 2 hr post injection. Value shown is %ID/g of tissue; format: ADME, organism-based; conditions: in vivo
[47] = target: Sigma non-opioid intracellular receptor 1 (Homo sapiens, UniProt Q99720); assay: 50% inhibitory dose against sigma receptor; format: functional
Chain of Sigma non-opioid intracellular receptor 1 (Q99720 whole entry): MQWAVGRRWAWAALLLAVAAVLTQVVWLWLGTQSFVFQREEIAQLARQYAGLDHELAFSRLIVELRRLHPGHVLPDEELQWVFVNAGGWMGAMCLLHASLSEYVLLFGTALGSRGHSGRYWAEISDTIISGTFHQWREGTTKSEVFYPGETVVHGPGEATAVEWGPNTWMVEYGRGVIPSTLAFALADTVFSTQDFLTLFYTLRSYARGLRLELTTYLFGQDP

Chain of D(2) dopamine receptor (P14416 whole entry): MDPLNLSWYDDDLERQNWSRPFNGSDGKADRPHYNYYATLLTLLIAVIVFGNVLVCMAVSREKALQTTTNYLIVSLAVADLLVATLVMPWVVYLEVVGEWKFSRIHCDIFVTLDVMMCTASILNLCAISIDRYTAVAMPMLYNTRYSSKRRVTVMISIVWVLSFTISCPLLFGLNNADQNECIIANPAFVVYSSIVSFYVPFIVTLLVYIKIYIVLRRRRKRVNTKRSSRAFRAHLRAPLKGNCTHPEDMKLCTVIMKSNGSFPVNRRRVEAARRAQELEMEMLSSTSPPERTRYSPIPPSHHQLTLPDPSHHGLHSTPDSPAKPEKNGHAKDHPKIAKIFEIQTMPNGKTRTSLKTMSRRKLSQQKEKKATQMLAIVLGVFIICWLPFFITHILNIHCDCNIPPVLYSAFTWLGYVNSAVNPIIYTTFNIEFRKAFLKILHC

N#Cc1ccc(OCC2CCN(C/C=C/I)CC2)cc1
ID/g [1]: 0.23% | ID [2]: 0.09% | ID/g [3]: 1.09% | ID/g [4]: 1.31% | ID/g [5]: 0.43% | ID/g [6]: 0.59% | ID/g [7]: 0.84% | logP [8]: 3.36 | ID/g [9]: 1.64% | ID/g [10]: 0.95% | ID/g [11]: 0.84% | ID/g [12]: 1.06% | ID/g [13]: 1.02% | ID/g [14]: 1.17% | Ki [15]: > 10 µM | ID/g [16]: 1.3% | ID/g [17]: 1.64% | ID/g [18]: 0.22% | ID/g [19]: 1.13% | ID/g [20]: 0.87% | ID/g [21]: 1.43% | ID/g [22]: 0.91% | ID [23]: 2.03% | ID/g [24]: 0.18% | ID [25]: 0.3% | ID/g [26]: 0.89% | ID/g [27]: 0.08% | ID/g [28]: 0.5% | ID/g [29]: 0.65% | ID/g [30]: 1.09% | ID/g [31]: 0.01% | ID/g [32]: 0.29% | ID/g [33]: 6.35% | Ki [34]: > 10 µM | Ki [35]: 38.8 nM | ID/g [36]: 0.67% | ID/g [37]: 0.81% | ID/g [38]: 1.18% | ID/g [39]: 0.33% | ID/g [40]: 3.14% | ID/g [41]: 1.01% | ID/g [42]: 0.91% | ID/g [43]: 1.17% | ID [44]: 1.97% | ID/g [45]: 1.07% | ID/g [46]: 0.81% | ID50 [47]: 0.01 mg/kg
